According to paper PMC6930638, “The Masked Polar Group Incorporation (MPGI) Strategy in Drug Design: Effects of Nitrogen Substitutions on Combretastatin and Isocombretastatin Tubulin Inhibitors” (Molecules, 2019):
Where two headings read alike, the source gives them in different places.

Key:
[1] = test system: Bovine brain microtubule protein (MTP); design: method as in PMID 26092446; conditions: comparison values in text; read-out: TPI IC50; cited from earlier work
[2] = test system: HeLa cervix epithelioid carcinoma; experiment: MTT cell antiproliferative assay, HeLa; assay type: cell-based; conditions: Homo sapiens, 72 h
[3] = test system: HT-29 colon adenocarcinoma; experiment: MTT cell antiproliferative assay, HT-29 (without or with verapamil); assay type: cell-based, human
Description: The in vitro antiproliferative activity of the synthesized compounds was evaluated by a colorimetric reaction, using the MTT reagent. They were tested against three different human tumor cell lines: HeLa cervix epithelioid carcinoma, HT-29 colon adenocarcinoma, and MCF-7 breast adenocarcinoma. […] Moving the alkylamino substituent from a para to a meta position with respect to the bridge results in potency reduction, except for the phenstatin analogue 1f. However, the introduction of a nitrogen atom to form 2-dimethylaminopyridine derivatives entails a loss of activity, both for phenstatin analogues (1b, 2b), while for isocombretastatins, it only involves a 2–3 times potency decrease (3b). For combretastatins, it implies an improvement in the cytotoxicity values down to tenths of nanomolar (8b). […] On the other hand, the best 2-dimethylaminopyridine was combretastatin 8b. All ammonium salts derivatives were not cytotoxic at micromolar concentrations.
As observed in Table 1, there are no significant changes in the IC50 values for most compounds, except for combretastatins 8a and 8i.
Acquired resistance to antitumor drugs is one of the more important problems of chemotherapy, also affecting tubulin-targeting drugs. In order to ascertain the impact of multidrug resistance phenotypes on the action of the compounds, we have measured the cell proliferation inhibitory activity of HT-29 cells in the presence of verapamil, a known P-glycoprotein 1/multidrug resistance protein 1 (MDR1) inhibitor at a concentration of 10 µM, not affecting cell proliferation. […] Except for the combretastatin analogues 8a and 8i, the affected drugs are all pyridine drugs.
HeLa (human cervical carcinoma) and MCF-7 (human breast carcinoma) cell lines were cultured in Dulbecco’s Modified Eagles Medium (DMEM) supplemented with 2 mM L-glutamine (Lonza-Cambrex, Karlskoga, Sweden), 10% (v/v) heat inactivated fetal bovine serum (HIFBS) (Lonza-Cambrex) and 100 μg/mL streptomycin-100 IU/mL penicillin (Lonza-Cambrex) at 37 °C in humidified 95% air and 5% CO2. HT-29 (human colon carcinoma) cells were cultured at 37 °C in complete RPMI 1640 medium containing 2 mM L-glutamine, 10% (v/v) HIFBS and 100 μg/mL streptomycin-100 IU/mL penicillin in humidified 95% air and 5% CO2 atmosphere.
The effect of the different compounds on the proliferation of human cell lines was determined by using the MTT (3-[4,5-dimethylthiazol-2-yl]-2,5-diphenyltetrazolium bromide) reagent (MTT Thiazolyl Blue Tetrazolium Bromide, Sigma-Aldrich, St. Louis, MO, USA) dissolved in PBS 5 mg/mL. Cell viability was evaluated seeding 100 µL of cells in exponential growth phase with appropriate cell line concentration (1.5 × 10^4 HeLa and MCF-7 cells/mL and 3 × 10^4 HT-29 cells/mL) in complete medium in 96-well plates at 37 °C and 5% CO2. After 24 h incubation to allow cells to attach to the plates the ligands were added at different concentrations from 10^−5 to 10^−9 M. The effect on the proliferation was evaluated 72 h post-treatment by adding the MTT reagent (10 µL/well) to a final concentration of 0.5 mg/mL and the plate was further incubated for another 3 h. After this period, the supernatant was removed, the MTT violet crystals formed on the bottom of each well were dissolved in DMSO (100 µL/well) and subsequently, the absorbance of the color complex was read at 570 nm using a multi-well plate reader. Compounds were dissolved in dimethyl sulfoxide (DMSO) and the final solvent concentrations never exceeded 0.5% (v/v). The control wells included treated cells with 0.5% (v/v) DMSO and the positive control. Measurements were performed in triplicate, and each experiment was repeated three times. […] Nonlinear curves fitting the experimental data were carried out for each compound.

[4] = test system: MCF-7 breast adenocarcinoma; experiment: MTT cell antiproliferative assay, MCF-7; assay type: cell-based; conditions: Homo sapiens, MCF7, 72 h
[5] = test system: Bovine brain microtubule protein (MTP); experiment: Tubulin polymerization inhibition assay (turbidimetry); assay type: biochemical; conditions: 1.5 mg/mL MTP; IC50 calculated only if more than 50% inhibition at 20 µM; read-out: TPI IC50
[6] = test system: HeLa, HT-29 and MCF-7 human tumor cell lines; experiment: Antiproliferative activity over the three human tumor cell lines (MTT); assay type: cell-based; conditions: Homo sapiens, range over the cell lines, Table S1; read-out: Cytotoxicity range (range of antiproliferative IC50 values)
[7] = test system: rat primary pancreatic cells; experiment: Toxicity against rat primary pancreatic cells (MTT); conditions: 7 h
Description: The toxicity of the compounds against rat primary pancreatic cells was evaluated by the MTT protocol (Table 2). […] Sodium taurocholate (NaTc) was also used at high concentrations as a model of acute pancreatitis in vitro.
Rat primary pancreatic cells were isolated as previously described. Afterwards, pancreatic cells were resuspended in Na-HEPES solution (pH 7.4) containing 14 mM glucose, 1% essential amino acid mixture, 1% (w/v) BSA, 0.01% (w/v) STI, 0.5 mM CaCl2 and incubated (5% CO2, at 37 °C) for 7 h in the absence (non-treated control) or the presence of compounds at different concentrations. After the treatment, cells were incubated (5% CO2, at 37 °C) with 0.5 mg/mL MTT for 2 h and the formazan crystals were solubilized with DMSO (v/v). The optical density was read at 570 nm with a reference wavelength of 630 nm. Non-treated cell viability was set as 100%.

In the case of `COc1ccc(/C=C\c2cc(OC)c(OC)c(OC)c2)cc1O` [CA-4, Combretastatin A4, reference compound], the IC50 [1] is given as 1 to 4 µM.

For `COc1cc(C=Cc2ccc(N(C)C)cc2)cc(OC)c1OC` [Compound 8a, N,N-dimethyl-4-(3,4,5-trimethoxystyryl)aniline], the IC50 [2] was 208 nM, the “improvement of HT-29 IC50 after verapamil treatment” value ([3]; 10 µM verapamil) was greater than 2 fold and the IC50 ([3]; Homo sapiens, HT-29, MTT, 72 h) was 503 nM. For the same compound, the IC50 [4] was 273 nM, the IC50 [5] was 3.4 µM and the IC50 [6] was 102 to 503 nM. For the same compound, the IC50 [1] was 3.4 µM.

For `COc1cc([C@@H]2c3cc4c(cc3[C@@H](O[C@@H]3O[C@@H]5CO[C@@H](C)O[C@H]5[C@H](O)[C@H]3O)[C@H]3COC(=O)[C@H]23)OCO4)cc(OC)c1O` [Etoposide, etoposide, reference compound], the “live cells with respect to the non-treated control (means ± S.E.M.)” value ([7]; rat, 0.05 µM, pH 7.4) was 89.87 ± 11.80%.

For `C[C@H](CCC(=O)NCCS(=O)(=O)O)[C@H]1CC[C@H]2[C@@H]3[C@H](O)C[C@@H]4C[C@H](O)CC[C@]4(C)[C@H]3C[C@H](O)[C@]12C` [NaTc, Sodium taurocholate, reference compound], the “live cells with respect to the non-treated control (means ± S.E.M.)” value ([7]; 0.50%) was 24.83 ± 11.86%.
